Results published in the kinase profiling compilation of Christmann-Franck et al. (2016).

Legend:
Assay in all cases: KINOMEscan competition binding
Conditions in all cases: compound 10.0 µM
[1] = molecular target: NTRK1 (human) (UniProt P04629)
[2] = molecular target: PIM2 (human) (UniProt Q9P1W9)
[3] = molecular target: RPS6KA2 KD2 (human) (UniProt Q15349)
[4] = molecular target: PLK4 (human) (UniProt O00444)
[5] = molecular target: MLTK (human) (UniProt Q9NYL2)
[6] = molecular target: FLT1 (human) (UniProt P17948)
[7] = molecular target: MAP2K1 (human) (UniProt Q02750)
[8] = molecular target: ULK2 (human) (UniProt Q8IYT8)
[9] = molecular target: PRKG2 (human) (UniProt Q13237)
[10] = molecular target: FES (human) (UniProt P07332)
[11] = molecular target: HIPK4 (human) (UniProt Q8NE63)
[12] = molecular target: CAMKK2 (human) (UniProt Q96RR4)
[13] = molecular target: CDKL5 (human) (UniProt O76039)
[14] = molecular target: CSK (human) (UniProt P41240)
[15] = molecular target: HIPK1 (human) (UniProt Q86Z02)
[16] = molecular target: MARK4 (human) (UniProt Q96L34)
[17] = tested on: PIK3CA (human), P42336 [H1047Y]
[18] = tested on: PIK3CA (human), P42336 [H1047L]
[19] = molecular target: WEE2 (human) (UniProt P0C1S8)
[20] = molecular target: RPS6KA1 KD1 (human) (UniProt Q15418)
[21] = molecular target: CDKL2 (human) (UniProt Q92772)
[22] = molecular target: BMPR1B (human) (UniProt O00238)
[23] = molecular target: EPHB6 (human) (UniProt O15197)
[24] = molecular target: AAK1 (human) (UniProt Q2M2I8)
[25] = molecular target: EIF2AK2 (human) (UniProt P19525)
[26] = molecular target: AKT2 (human) (UniProt P31751)
[27] = molecular target: CLK1 (human) (UniProt P49759)
[28] = molecular target: STK3 (human) (UniProt Q13188)
[29] = molecular target: STK38 (human) (UniProt Q15208)
[30] = molecular target: EPHA2 (human) (UniProt P29317)
[31] = molecular target: PRKG1 (human) (UniProt Q13976)
[32] = molecular target: ZAP70 (human) (UniProt P43403)
[33] = molecular target: MAPK14 (human) (UniProt Q16539)
[34] = molecular target: CAMK1G (human) (UniProt Q96NX5)
[35] = molecular target: TNNI3K (human) (UniProt Q59H18)
[36] = molecular target: TLK1 (human) (UniProt Q9UKI8)
[37] = molecular target: PRKCQ (human) (UniProt Q04759)
[38] = molecular target: PRPF4B (human) (UniProt Q13523)
[39] = molecular target: BRSK2 (human) (UniProt Q8IWQ3)
[40] = molecular target: FGFR1 (human) (UniProt P11362)
[41] = molecular target: EPHA3 (human) (UniProt P29320)
[42] = molecular target: INSR (human) (UniProt P06213)
INSR (human), sequence (P06213 whole entry, looked up): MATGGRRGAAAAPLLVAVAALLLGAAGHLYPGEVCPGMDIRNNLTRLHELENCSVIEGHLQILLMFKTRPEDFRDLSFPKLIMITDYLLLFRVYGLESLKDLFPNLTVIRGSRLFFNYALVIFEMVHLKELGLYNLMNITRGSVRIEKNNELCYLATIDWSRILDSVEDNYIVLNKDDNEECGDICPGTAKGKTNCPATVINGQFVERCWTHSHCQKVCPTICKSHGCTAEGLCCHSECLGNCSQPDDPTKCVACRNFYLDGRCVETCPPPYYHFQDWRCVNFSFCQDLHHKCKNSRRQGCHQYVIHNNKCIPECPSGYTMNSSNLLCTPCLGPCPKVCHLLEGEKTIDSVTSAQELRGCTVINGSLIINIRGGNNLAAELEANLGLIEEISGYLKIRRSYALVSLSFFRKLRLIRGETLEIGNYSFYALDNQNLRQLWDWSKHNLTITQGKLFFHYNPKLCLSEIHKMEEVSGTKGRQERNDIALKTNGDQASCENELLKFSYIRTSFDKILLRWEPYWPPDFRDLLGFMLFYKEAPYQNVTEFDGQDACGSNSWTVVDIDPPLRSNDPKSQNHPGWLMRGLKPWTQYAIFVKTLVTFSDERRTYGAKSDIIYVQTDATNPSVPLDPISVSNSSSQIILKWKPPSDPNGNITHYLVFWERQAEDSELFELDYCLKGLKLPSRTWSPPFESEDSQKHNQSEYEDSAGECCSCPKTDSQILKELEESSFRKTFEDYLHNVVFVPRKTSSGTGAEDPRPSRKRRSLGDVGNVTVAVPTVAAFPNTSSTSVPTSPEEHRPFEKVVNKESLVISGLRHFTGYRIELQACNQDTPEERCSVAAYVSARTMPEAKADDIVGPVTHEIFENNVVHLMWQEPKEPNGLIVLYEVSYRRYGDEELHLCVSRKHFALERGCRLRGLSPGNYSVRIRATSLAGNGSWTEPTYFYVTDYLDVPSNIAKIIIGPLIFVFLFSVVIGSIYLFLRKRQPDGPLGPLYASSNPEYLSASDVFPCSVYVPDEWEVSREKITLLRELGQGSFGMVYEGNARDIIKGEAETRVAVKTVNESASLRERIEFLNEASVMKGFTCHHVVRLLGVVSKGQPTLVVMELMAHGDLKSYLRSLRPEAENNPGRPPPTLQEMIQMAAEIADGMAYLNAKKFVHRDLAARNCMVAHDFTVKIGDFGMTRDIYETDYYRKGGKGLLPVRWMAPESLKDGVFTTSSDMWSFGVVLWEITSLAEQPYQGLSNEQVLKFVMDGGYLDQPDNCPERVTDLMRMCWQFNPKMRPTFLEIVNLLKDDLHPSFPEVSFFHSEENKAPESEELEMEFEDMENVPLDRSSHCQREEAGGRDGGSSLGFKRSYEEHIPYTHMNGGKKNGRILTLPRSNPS

FGFR1 (human), sequence (P11362 whole entry, looked up): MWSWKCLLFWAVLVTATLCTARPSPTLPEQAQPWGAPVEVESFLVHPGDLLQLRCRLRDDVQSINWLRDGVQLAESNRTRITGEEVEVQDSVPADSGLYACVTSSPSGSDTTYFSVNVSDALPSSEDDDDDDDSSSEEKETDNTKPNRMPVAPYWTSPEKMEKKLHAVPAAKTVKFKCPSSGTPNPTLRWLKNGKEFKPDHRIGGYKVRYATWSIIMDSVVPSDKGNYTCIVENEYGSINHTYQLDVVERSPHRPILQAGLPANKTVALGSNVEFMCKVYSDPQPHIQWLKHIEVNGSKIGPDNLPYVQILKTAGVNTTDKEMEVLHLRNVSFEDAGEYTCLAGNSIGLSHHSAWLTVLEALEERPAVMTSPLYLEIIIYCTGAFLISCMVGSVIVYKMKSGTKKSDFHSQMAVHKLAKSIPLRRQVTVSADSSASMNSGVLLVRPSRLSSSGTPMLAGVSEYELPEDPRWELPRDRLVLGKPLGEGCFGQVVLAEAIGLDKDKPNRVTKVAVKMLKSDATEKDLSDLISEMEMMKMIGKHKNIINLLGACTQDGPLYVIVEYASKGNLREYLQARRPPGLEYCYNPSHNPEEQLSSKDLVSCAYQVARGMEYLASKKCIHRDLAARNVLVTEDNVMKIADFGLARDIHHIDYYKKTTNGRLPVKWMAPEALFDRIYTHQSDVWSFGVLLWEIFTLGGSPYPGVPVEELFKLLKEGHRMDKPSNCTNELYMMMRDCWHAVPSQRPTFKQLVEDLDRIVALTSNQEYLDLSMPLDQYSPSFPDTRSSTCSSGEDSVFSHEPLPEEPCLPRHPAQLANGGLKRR
STK3 (human), sequence (Q13188 whole entry, looked up): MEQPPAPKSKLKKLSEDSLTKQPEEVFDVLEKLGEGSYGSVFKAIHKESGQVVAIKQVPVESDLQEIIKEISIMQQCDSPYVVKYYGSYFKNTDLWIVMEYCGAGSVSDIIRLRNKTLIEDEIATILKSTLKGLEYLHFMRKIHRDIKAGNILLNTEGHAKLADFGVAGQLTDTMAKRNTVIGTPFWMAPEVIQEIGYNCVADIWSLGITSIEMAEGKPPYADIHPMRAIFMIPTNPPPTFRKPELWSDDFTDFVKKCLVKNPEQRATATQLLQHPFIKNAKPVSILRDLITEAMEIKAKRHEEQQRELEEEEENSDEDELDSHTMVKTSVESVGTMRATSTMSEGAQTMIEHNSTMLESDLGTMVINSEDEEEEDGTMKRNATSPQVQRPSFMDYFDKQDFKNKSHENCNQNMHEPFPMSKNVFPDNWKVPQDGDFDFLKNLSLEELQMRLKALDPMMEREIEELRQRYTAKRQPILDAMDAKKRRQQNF
CDKL2 (human), sequence (Q92772 whole entry, looked up): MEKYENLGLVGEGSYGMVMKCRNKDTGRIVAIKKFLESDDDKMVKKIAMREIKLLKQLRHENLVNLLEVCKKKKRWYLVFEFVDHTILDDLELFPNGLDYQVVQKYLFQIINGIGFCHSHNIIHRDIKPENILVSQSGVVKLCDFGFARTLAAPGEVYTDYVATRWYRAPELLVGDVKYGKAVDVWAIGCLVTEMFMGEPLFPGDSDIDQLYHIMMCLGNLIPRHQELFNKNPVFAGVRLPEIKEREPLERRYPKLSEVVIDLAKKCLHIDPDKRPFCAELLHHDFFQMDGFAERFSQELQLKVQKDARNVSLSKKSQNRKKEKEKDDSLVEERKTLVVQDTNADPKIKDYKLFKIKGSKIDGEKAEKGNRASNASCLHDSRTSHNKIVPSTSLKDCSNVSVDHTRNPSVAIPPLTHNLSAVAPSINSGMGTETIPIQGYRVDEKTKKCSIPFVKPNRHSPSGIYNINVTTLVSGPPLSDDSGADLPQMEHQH
AAK1 (human), sequence (Q2M2I8 whole entry, looked up): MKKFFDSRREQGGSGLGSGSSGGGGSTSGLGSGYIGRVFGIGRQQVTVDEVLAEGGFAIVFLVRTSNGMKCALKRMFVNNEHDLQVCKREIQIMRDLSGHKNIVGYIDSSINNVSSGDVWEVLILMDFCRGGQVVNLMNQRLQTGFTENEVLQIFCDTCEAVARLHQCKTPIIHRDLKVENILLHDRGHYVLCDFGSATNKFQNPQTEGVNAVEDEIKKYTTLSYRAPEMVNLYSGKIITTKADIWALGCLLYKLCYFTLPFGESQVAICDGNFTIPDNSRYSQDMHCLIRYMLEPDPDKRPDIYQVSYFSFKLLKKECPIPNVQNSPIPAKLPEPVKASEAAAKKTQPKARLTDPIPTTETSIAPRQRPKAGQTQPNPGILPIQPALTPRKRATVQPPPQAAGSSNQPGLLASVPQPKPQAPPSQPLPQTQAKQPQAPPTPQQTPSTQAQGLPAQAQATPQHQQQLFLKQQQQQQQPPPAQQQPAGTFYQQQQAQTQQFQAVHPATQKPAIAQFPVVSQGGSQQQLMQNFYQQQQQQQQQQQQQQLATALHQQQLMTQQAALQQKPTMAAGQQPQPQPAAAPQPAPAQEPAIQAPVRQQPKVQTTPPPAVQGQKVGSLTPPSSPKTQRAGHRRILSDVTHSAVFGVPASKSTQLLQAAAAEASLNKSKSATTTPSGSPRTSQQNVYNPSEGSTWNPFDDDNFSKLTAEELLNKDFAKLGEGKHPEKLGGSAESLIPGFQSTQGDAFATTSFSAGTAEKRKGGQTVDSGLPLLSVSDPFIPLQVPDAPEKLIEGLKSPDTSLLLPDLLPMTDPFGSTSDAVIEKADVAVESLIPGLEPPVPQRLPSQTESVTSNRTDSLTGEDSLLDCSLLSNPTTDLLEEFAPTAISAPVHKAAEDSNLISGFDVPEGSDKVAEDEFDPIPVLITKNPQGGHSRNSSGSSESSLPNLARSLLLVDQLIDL
CLK1 (human), sequence (P49759 whole entry, looked up): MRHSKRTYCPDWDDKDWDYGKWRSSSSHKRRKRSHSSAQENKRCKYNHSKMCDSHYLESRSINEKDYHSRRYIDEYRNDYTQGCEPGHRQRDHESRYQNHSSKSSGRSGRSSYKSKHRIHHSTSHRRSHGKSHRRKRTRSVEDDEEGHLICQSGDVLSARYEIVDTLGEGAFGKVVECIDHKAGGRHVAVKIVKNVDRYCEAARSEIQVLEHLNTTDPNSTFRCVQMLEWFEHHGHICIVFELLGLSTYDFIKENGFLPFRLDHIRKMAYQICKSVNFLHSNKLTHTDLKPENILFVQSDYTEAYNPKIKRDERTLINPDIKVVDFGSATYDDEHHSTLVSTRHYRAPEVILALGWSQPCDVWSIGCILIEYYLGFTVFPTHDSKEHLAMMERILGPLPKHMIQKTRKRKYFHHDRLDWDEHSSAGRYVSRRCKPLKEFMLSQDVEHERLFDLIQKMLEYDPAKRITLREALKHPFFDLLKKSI
MAP2K1 (human), sequence (Q02750 whole entry, looked up): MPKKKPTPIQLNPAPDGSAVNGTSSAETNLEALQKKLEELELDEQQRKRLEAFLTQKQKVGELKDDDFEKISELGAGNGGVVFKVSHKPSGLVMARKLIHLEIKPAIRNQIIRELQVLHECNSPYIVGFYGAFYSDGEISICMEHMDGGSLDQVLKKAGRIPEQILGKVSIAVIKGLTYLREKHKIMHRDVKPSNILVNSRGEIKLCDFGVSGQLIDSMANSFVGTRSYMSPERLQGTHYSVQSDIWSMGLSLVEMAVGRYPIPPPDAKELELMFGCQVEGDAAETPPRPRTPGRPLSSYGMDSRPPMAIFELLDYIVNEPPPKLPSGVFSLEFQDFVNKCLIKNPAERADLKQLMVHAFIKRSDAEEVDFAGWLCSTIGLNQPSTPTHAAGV

SMILES: Cn1cc(C2=C(c3ccc(Cl)cc3Cl)C(=O)NC2=O)c2ccccc21
- kinase still bound, per cent of control [1]: 77%
- kinase still bound, per cent of control [2]: 84%
- kinase still bound, per cent of control [3]: 78%
- kinase still bound, per cent of control [4]: 14%
- kinase still bound, per cent of control [5]: 93%
- kinase still bound, per cent of control [6]: 100%
- kinase still bound, per cent of control [7]: 100%
- kinase still bound, per cent of control [8]: 96%
- kinase still bound, per cent of control [9]: 73%
- kinase still bound, per cent of control [10]: 100%
- kinase still bound, per cent of control [11]: 14%
- kinase still bound, per cent of control [12]: 72%
- kinase still bound, per cent of control [13]: 100%
- kinase still bound, per cent of control [14]: 100%
- kinase still bound, per cent of control [15]: 5%
- kinase still bound, per cent of control [16]: 100%
- kinase still bound, per cent of control [17]: 100%
- kinase still bound, per cent of control [18]: 100%
- kinase still bound, per cent of control [19]: 100%
- kinase still bound, per cent of control [20]: 58%
- kinase still bound, per cent of control [21]: 87%
- kinase still bound, per cent of control [22]: 86%
- kinase still bound, per cent of control [23]: 100%
- kinase still bound, per cent of control [24]: 26%
- kinase still bound, per cent of control [25]: 81%
- kinase still bound, per cent of control [26]: 100%
- kinase still bound, per cent of control [27]: 1.6%
- kinase still bound, per cent of control [28]: 9.9%
- kinase still bound, per cent of control [29]: 100%
- kinase still bound, per cent of control [30]: 100%
- kinase still bound, per cent of control [31]: 61%
- kinase still bound, per cent of control [32]: 100%
- kinase still bound, per cent of control [33]: 72%
- kinase still bound, per cent of control [34]: 70%
- kinase still bound, per cent of control [35]: 80%
- kinase still bound, per cent of control [36]: 36%
- kinase still bound, per cent of control [37]: 24%
- kinase still bound, per cent of control [38]: 100%
- kinase still bound, per cent of control [39]: 85%
- kinase still bound, per cent of control [40]: 100%
- kinase still bound, per cent of control [41]: 76%
- kinase still bound, per cent of control [42]: 91%

SMILES: O=C1Nc2cc(Br)ccc2/C1=C1/Nc2ccccc2/C1=N\O
- kinase still bound, per cent of control [1]: 19%
- kinase still bound, per cent of control [2]: 52%
- kinase still bound, per cent of control [3]: 79%
- kinase still bound, per cent of control [4]: 0%
- kinase still bound, per cent of control [5]: 26%
- kinase still bound, per cent of control [6]: 1.3%
- kinase still bound, per cent of control [7]: 37%
- kinase still bound, per cent of control [8]: 35%
- kinase still bound, per cent of control [9]: 24%
- kinase still bound, per cent of control [10]: 100%
- kinase still bound, per cent of control [11]: 3%
- kinase still bound, per cent of control [12]: 37%
- kinase still bound, per cent of control [13]: 7.4%
- kinase still bound, per cent of control [14]: 56%
- kinase still bound, per cent of control [15]: 7.6%
- kinase still bound, per cent of control [16]: 35%
- kinase still bound, per cent of control [17]: 100%
- kinase still bound, per cent of control [18]: 100%
- kinase still bound, per cent of control [19]: 100%
- kinase still bound, per cent of control [20]: 3.1%
- kinase still bound, per cent of control [21]: 6.1%
- kinase still bound, per cent of control [22]: 50%
- kinase still bound, per cent of control [23]: 0.3%
- kinase still bound, per cent of control [24]: 0.75%
- kinase still bound, per cent of control [25]: 33%
- kinase still bound, per cent of control [26]: 100%
- kinase still bound, per cent of control [27]: 34%
- kinase still bound, per cent of control [28]: 0%
- kinase still bound, per cent of control [29]: 86%
- kinase still bound, per cent of control [30]: 35%
- kinase still bound, per cent of control [31]: 100%
- kinase still bound, per cent of control [32]: 90%
- kinase still bound, per cent of control [33]: 92%
- kinase still bound, per cent of control [34]: 42%
- kinase still bound, per cent of control [35]: 68%
- kinase still bound, per cent of control [36]: 47%
- kinase still bound, per cent of control [37]: 55%
- kinase still bound, per cent of control [38]: 13%
- kinase still bound, per cent of control [39]: 1.1%
- kinase still bound, per cent of control [40]: 18%
- kinase still bound, per cent of control [41]: 1.7%
- kinase still bound, per cent of control [42]: 72%
